Results from patent US9403806B1, “Cognition enhancing compounds and compositions, methods of making, and methods of treating” (NeuroSolis, Inc., priority 2010, dated 2016).

What was measured:
[1] = Blood and brain concentrations (rats), oral gavage; assay type: in vivo, Long-Evans Hooded rats; details: rat, 10 mg/kg po, 1 hr, relative to MCD-386 = 1.00
Method: Long-Evans Hooded rats (Charles River: male, 250-350 g) were dosed with solutions of test compounds in PBS by oral gavage. At the desired time after dosing, the animals were anesthetized with isoflurane, and then euthanized by cervical dislocation. Blood was obtained by cardiac puncture, transferred to a 1.5 mL microcentrifuge tube containing 15U Heparin, and the plasma recovered after centrifugation. Brains were dissected, weighed, immediately chilled to 4° C., and homogenized using a PowerGen 125 homogenizer in five volumes of ice-cold 2% formic acid. Proteins were precipitated from plasma and brain homogenate with two and five volumes respectively of ice-cold 2% formic acid and clarified by centrifugation. The supernatant was ultra-filtered by centrifugation through a 3K MWCO spin column (Pall Life Sciences), following the manufacturer's instructions. The concentration of compound in the ultra-filtrate was subjected to reverse-phase liquid chromatography using a 150×2.1 mm Agilent C8 reverse-phase column on a Shimadzu Prominence LC, eluting the compounds with a gradient of 2% to 50% of acetonitrile+0.1% formic acid for compound MI-50,382, or an isocratic flow of 2% acetonitrile+0.1% formic acid for the rest of the compounds listed. The concentration of the compound in the column effluent was measured using an Applied Biosystems API-3200 triple quadrupole mass spectrometer equipped with an electrospray sample injection system. The counts of the characteristic parent and product ions of each test compound were converted to concentration units by comparison with a standard calibration curve.

rat M1 receptors = molecular target: T1, rat M1 receptors (Rattus norvegicus, UniProt P08482); experiment: PI turnover (inositol phosphate production) in M1-CHO cells; assay type: cell-based; details: mean Smax relative to carbachol (100.0); CHO cells expressing rat M1
T1 construct: host or cells: CHO (M1-CHO)
T1 sequence (P08482 1-460): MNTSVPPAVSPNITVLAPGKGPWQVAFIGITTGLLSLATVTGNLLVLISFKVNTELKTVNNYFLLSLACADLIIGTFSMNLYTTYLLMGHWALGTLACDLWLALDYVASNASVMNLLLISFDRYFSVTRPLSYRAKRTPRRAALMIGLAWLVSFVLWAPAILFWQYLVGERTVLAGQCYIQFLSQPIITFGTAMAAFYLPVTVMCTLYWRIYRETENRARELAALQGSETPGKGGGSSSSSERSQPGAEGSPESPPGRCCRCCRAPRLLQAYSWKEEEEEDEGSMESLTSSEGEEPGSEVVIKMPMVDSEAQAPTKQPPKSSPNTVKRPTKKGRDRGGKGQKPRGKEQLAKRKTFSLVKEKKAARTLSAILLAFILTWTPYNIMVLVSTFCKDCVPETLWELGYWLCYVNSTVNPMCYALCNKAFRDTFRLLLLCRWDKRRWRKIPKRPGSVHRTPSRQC
Method: The medium was changed to 70 μL/well of inositol-free DMEM containing 2 mM glutamine, 10% FBS and 10 μCi/ml of [3H]-inositol (PE:cat # NET114A250UC), incubated overnight as above, then 100 μL of a solution of the test compound in HBSS containing 10 mM LiCl and 20 mM HEPES, pH 7.4 was added, incubation was continued for 60 min under the above conditions, and the test was stopped by removing the test compound and replacing with 100 μL of 50 mM formic acid in water at 4° C. […] The compounds in Table 1 are all dihydropyrimidine-oxadiazoles which vary only at the oxadiazole side chain.

[2] = tested on: healthy male volunteer human subjects; experiment: Monitoring of cholinergic side effects in healthy volunteers; assay type: in vivo; details: 6 subjects
Method: A single 5 mg capsule or 5×0.2 mg capsules (1 mg total dose) were administered orally to healthy male volunteer human subjects with 125 ml of water. Six such subjects receiving the 5 mg dose, and a different 6 subjects received the 1 mg dose.
Subjects were monitored, among other things, for typical signs of muscarinic cholinergic action, such as increased salivation, lachrimation and diaphoresis.

[3] = Metabolites in serum and urine of dosed rats (LC-MS); assay type: in vivo; details: rat serum or urine, 10 mg/kg po
Method: Oxadiazoles disclosed herein as well as other oxadiazoles were investigated to determine the formation of metabolites. Animals were dosed, blood taken, serum prepared, serum proteins precipitated and ultrafiltrates prepared as described in Example 6. In separate experiments, urine was collected from rats for 16-24 hours after dosing, using standard metabolic cages. The urine container and collected urine were maintained at 4° C. Urine was lyophilized, taken back into water. The uftrafiltrate was prepared by adding formic acid to a final concentration of 1% to the urine samples, then filtered through a 0.2 um nylon membrane. The ultrafiltrate was subjected to LC-MS analysis. Instead of measuring the product ions in Q3, manual Q1 scans of the liquid chromatograph were undertaken, seeking parent ions of potential metabolites of the compounds. The criteria for identifying metabolites were as follows: (1) the ion should be present in the sera or urines of dosed rats, but not in sera or urines from non-dosed rats (2) the ion should be identifiable as a metabolic derivative of the dosed compound (e.g. loss of a functional chemical moiety, addition of a hydroxyl group or a glucuronic acid moiety, etc). Metabolites were determined not to be present if no compound meeting the above criteria could be detected in serum or urine.

SMILES: CCc1noc(C2CN=CNC2)n1 (centres unmarked) [MCD-386, 3-ethyl-5-(1,4,5,6-tetrahydropyrimidin-5-yl)-1,2,4-oxadiazole]
- Brain Cmax (10 mg/kg po) 1 hr MCD-386 = 1.00 [1]: 1.00
- M1/CHO PI turnover Relative Mean Smax (rat M1 receptors): 70.0
- observable cholinergic side effects ([2]; 1 mg total oral dose cohort): none of the subjects in the 1 mg total dose cohort experienced any observable cholinergic side effects
- observable cholinergic side effects ([2]; 5 mg oral dose cohort): four subjects showed signs of muscarinic cholinergic activity
- Presence of metabolites (10 mg/kg po) [3]: Yes
